Patent US20140309192A1, “MODULATORS OF THE G PROTEIN-COUPLED MAS RECEPTOR AND THE TREATMENT OF DISORDERS RELATED THERETO” (ARENA PHARMACEUTICALS, INC., priority 2011, published 2014)

How the values were obtained:
[1] = system: Male Sprague-Dawley rats; assay: Myocardial ischemia/reperfusion injury in rats, infarct size (Example 4); format: in vivo, rat
Procedure: Adult rats were anesthetized with sodium pentobarbital (50 mg/kg i.p.) and placed in the supine position on a surgery frame with a heating pad (37° C.) beneath. Rats were tracheostomized and ventilated with a SAR-830 small-animal ventilator (Model 683, Harvard Apparatus) to provide room air at a tidal volume of 2.5 mL/stroke and at a rate of 70 stroke/min. Polyethylene catheters were placed in the right internal carotid artery and the external jugular vein for measurement of mean arterial blood pressure and infusion of drug or vehicle, respectively.
Myocardial I/R injury was produced as follows. A left thoracotomy was performed approximately 20 mm from the sternum to expose the heart at the fifth intercostal space. […]
Animals were randomly divided into the following 4 groups: (1-3) low, medium, and high doses of Compound 170 administered by continuous i.v. infusion starting 30 min before coronary artery ligation (n=6 per dose), and (4) 20% HPBCD (vehicle, hydroxypropyl-β-cyclodextrin) administered by continuous i.v. infusion beginning 30 min before coronary artery ligation (n=6). […] Mean arterial blood pressure was measured after stabilization and just prior to drug infusion (baseline) and again following 25 min of drug or vehicle infusion, before coronary artery ligation. […]

[2] = target: T1, human Mas receptor (Homo sapiens, UniProt P04201); assay: cAMP Dynamic2 HTRF assay, HEK293 cells stably expressing human Mas receptor; format: cell-based
T1 construct: expressed in transfected cells; host or cells: HEK293 (ATCC CRL-1573)
T1 sequence (P04201 1-325): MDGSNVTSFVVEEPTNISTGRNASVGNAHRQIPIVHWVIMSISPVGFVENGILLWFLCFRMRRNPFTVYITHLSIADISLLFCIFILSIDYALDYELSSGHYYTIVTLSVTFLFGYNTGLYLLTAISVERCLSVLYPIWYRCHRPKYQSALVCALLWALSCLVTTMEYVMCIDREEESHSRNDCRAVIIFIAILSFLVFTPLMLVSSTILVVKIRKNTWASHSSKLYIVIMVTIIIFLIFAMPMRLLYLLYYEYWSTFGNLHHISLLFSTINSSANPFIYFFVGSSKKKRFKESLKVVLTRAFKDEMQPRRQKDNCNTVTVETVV
Procedure: cAMP accumulation in HEK293 cells stably expressing human or rat Mas receptors was determined by the 384 well cAMP Dynamic2 Homogenous Time-Resolved Fluorescence (HTRF®) assay (CisBio Cat#62AM4PEB) following the manufacturer's protocol. Briefly, cells were plated at 30,000 or 1000 cells per well in 5 μL stimulation buffer (PBS containing 500 μM IBMX and 0.1% bovine serum albumin), 5 μL of Mas compounds diluted in PBS were added to each well and serial diluted cAMP standards were also added to corresponding wells at this step. For detecting […] activities, 10 μM forskolin was included with the compounds for a final concentration of 5 μM at the stimulation step. Following 1 h stimulation at room temperature, d2-labeled cAMP and anti-cAMP cryptate conjugate diluted in detection buffer (included in the kit) were added to cells sequentially at 5 μl per well. The plates were incubated further for 1 h at room temperature. Ratiometic measurements of fluorescence emission at 665 nm and 620 nm were obtained by Pherastar fluorometer (BMG Labtech) and cAMP levels in each well were calculated according to the standard curves on each plate. IC50 values were obtained by fitting data to a nonlinear curve-fitting program (GraphPad Software, Inc., La Jolla Calif.).

[3] = system: isolated perfused rat hearts; assay: Global ischemia-reperfusion in Langendorff perfused rat hearts (coronary flow, arrhythmias)
Procedure: For ischemia-reperfusion experiments, Langendorff perfused rat hearts were equilibrated for 20 min and then baseline coronary flow was recorded for 10 min Thereafter, all hearts were subjected to 30 min of global ischemia by stopping perfusate flow, followed by 30 min of reperfusion with either vehicle (0.01% DMSO), Mas agonist AR234960 (1 μM) or Mas inverse agonist AR244555 (5 μM) added to the perfusion buffer. Electrocardiography was also continuously recorded during the observation period through electrodes attached directly to the surface of the ventricles to detect cardiac arrhythmias during reperfusion.

| Structure (SMILES) | reduction of myocardial infarction size ([1]; FIG. 5, rats subjected to coronary artery ligation and reperfusion) | myocardial infarct size after reperfusion compared to vehicle treatment ([1]; medium (1.878 mg/kg loading + 0.492 mg/kg/h) and high dose (6.26 mg/kg loading + 1.64 mg/kg/h) i.v., 30 min ischemia, 2 h reperfusion) | IC50 ([2]; cAMP assay with forskolin, read-out: Gi coupling IC50) [nM] | forskolin stimulated cAMP levels (Mas-Gi activity) ([2]; cells stably expressing human or rat Mas receptor, 5 μM forskolin) | frequency of prolonged ventricular arrhythmias during reperfusion ([3]; 1 μM, three out of seven hearts) [%] | coronary flow during reperfusion compared to vehicle treated hearts ([3]; 30 min global ischemia, 30 min reperfusion, AR234960 1 μM, AR244555 5 μM in perfusate during reperfusion) |
| --- | --- | --- | --- | --- | --- | --- |
| NC(=O)[C@H](CO)NCc1ccc(C(=O)Nc2ccc(Cl)cc2N2CCN(CCC(F)(F)F)CC2)c(F)c1F [Compound 170, (S)-4-((1-Amino-3-hydroxy-1-oxopropan-2-ylamino)methyl)-N-(4-chloro-2-(4-(3,3,3-trifluoropropyl)piperazin-1-yl)phenyl)-2,3-difluorobenzamide] | dose dependent effect | significant decrease |  |  |  |  |
| COc1cc([N+](=O)[O-])ccc1S(=O)(=O)N1CC(CN2CCN(c3ccccn3)CC2)C(c2cccc(F)c2)C1 (stereo not drawn) [AR234960] |  |  | 719 ± 12 | dose dependent reduction | 42.9 | trend toward decreased coronary flow |
